{"source": "patent US5236955A", "about": "“Anti-fungal agent” (Washington University, priority 1992, dated 1993)", "key": {"S. cerevisiae NMT": {"molecular_target": "T1, S. cerevisiae NMT (Saccharomyces cerevisiae, UniProt P14743)", "T1 construct": "made in house; host or cells: E. coli", "T1 sequence (P14743 whole entry, the tested form may be a part)": "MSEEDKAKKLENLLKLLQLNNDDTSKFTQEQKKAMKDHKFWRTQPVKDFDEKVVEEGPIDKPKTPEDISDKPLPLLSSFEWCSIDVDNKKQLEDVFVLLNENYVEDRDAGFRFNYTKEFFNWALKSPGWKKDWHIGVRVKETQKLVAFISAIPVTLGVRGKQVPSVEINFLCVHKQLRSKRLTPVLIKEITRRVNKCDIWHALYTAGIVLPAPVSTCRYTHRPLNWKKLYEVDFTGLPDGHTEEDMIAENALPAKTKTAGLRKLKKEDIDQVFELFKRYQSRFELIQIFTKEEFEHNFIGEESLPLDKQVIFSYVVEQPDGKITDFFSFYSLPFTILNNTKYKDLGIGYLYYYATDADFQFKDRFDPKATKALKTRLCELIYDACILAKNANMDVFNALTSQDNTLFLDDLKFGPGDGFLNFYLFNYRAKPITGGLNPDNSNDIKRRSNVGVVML", "assay": "In vitro discontinuous NMT assay", "type": "biochemical", "conditions": "40 μM fatty acid, HIV-1 Pr55gag octapeptide", "protocol": "(§1) Details of the single point, discontinuous, in vitro NMT assay are described in Examples, below. A tritiated octapeptide derived from residues 2-9 of […] HIV-I Pr55^gag (GARA[^3 H]SVLS-NH2) was used in all assays. The amount of analogpeptide produced is expressed as a percentage of myristoylpeptide generated in a control incubation. All assays were performed in triplicate. The mean ±1 standard deviation is shown. Under the assay conditions employed, the amount of myristoylpeptide generated by purified E. coli-derived S. cerevisiae NMT ranged from 5×10^5 to 2×10^6 pmol/mg enzyme/min while the amount of myristolypeptide produced by purified E. coli-derived, C. albicans NMT ranged from 4×10^5 to 1.5×10^6 pmol/mg enzyme/mni.\n(§2) In vitro discontinuous NMT assay--This assay was carried out by conventional procedures as described by Duronio et al., Methods: A Companion to Methods in Enzymol. 1, 253-263 (1990); Kishore et al., J. Biol. Chem. 266, 8835-8853 (1991). Briefly, a single point assay was performed by first converting myristic acid or a fatty acid analog (final concentration=40 μM) to its CoA thioester using Pseudomonas acylCoA synthetase (EC 6.2.1.3, Sigma Chemical Co.). Following a 25 min incubation at 30° C., purified E. coli derived S. cerevisiae or C. albicans NMT [Rudnick et al., Ibid. 265, 13370-13378 (1990); Wiegand et al., J. Biol. Chem. 267, 8591-8598 (1992)], final concentration=0.1 μg/ml, was added to the reaction mixture together with a tritiated peptide substrate derived from residues 2-9 of the HIV-1 Pr55^gag (Gly-Ala-Arg-[^3 H]Ala-Ser-Val-Leu-Ser-NH2) [Kishore et al., supra (1991); specific activity=1.2 Ci/mmol; final concentration=23 μM]. After an additional 10 min incubation at 30° C., the enzymatically generated, radiolabeled acylpeptide was purified by reverse phase HPLC and quantitated using an in-line scintillation counter [Kishore et al., supra, (1991)]. The amount of analogpeptide formed was expressed as a percentage of the amount of myristoylpeptide formed in a parallel reference assay. All assays were performed in duplicate or triplicate.\n(§3) In vitro studies of purified S. cerevisiae and C. albicans NMT reveal differences in the kinetic properties of oxatetradecanoic and oxatridecanoic acid analogs--To begin to understand the mechanism which underlies the fungicidal activities of some but not all of the oxygen containing fatty acid analogs, the relative activities of the sixteen oxatri-, oxatetradecanoic acids and dioxatetradecanoic acids were examined in an in vitro assay. The two step assay measures NMT-dependent transfer of the acyl chain from an enzymatically generated acylCoA to a radiolabeled peptide substrate. […]"}, "C. albicans NMT": {"molecular_target": "T2, C. albicans NMT (Candida albicans, UniProt P30418)", "T2 construct": "made in house; host or cells: E. coli", "T2 sequence (P30418 whole entry)": "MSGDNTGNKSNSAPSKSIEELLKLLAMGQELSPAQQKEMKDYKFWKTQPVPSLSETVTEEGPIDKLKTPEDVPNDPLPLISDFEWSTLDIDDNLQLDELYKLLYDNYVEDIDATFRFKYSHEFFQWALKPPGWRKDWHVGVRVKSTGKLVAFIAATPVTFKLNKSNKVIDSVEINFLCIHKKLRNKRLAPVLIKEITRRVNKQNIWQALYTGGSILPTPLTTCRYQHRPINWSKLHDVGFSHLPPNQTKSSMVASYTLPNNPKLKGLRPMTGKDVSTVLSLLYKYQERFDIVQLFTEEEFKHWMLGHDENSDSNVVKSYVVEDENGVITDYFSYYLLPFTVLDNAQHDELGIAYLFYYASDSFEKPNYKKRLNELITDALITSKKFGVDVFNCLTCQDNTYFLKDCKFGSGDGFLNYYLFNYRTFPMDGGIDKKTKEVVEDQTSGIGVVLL", "assay": "In vitro discontinuous NMT assay", "type": "biochemical", "conditions": "40 μM fatty acid, HIV-1 Pr55gag octapeptide", "protocol": "as §1, §2, §3"}, "C. neoformans [1]": {"system": "C. neoformans", "assay": "Viability of C. neoformans (viable cells relative to EtOH control culture)", "type": "cell-based, Cryptococcus neoformans", "conditions": "for fungicidal / fungistatic effect on C. neoformans: screening assay; for log reduction at 300 µM: relative to 0.1% EtOH control, read-out: decrease in viable cells (converted); for attenuation of fungicidal activity on shortening by one methylene: versus corresponding oxatetradecanoic acid, 300 μM", "protocol": "(§4) Panel A, survey of the effects of several oxatetradecanoic acids on the growth of C. neoformans. A culture of C. neoformans was grown at 30° C. in SAB media to midlog phase (A600 ~0.5). A single dose of fatty acid was then added to subcultures (final concentration=300 μM). EtOH(0.1%) was used as a negative control. Amphotericin B (AmB) was added (final concentraton=55 μM) as a positive control. Aliquots were withdrawn from the subcultures 0, 0.5, 2, 4, 7, 21, and 24 h after these additions and then absorbance at 600 nm was measured. All assays were done in duplicate or triplicate. A representative test is shown. Panel B, survey of the effects of oxatetradecanoic acids, dioxatetradecanoic acids and oxatridecanoic acids on the viability of C. neoformans. Fatty acid analog was added to the cultures as in Panel A. Aliquots were withdrawn 0.5, 2, 4, 7 or 8, and 24 h later and plated on SAB-agar at various dilutions to determine the number of viable organisms/ml culture. All assays were done in duplicate. Data from a representative test are expressed as the ratio of viable cells in treated cultures relative to a control culture that received 0.1% EtOH. A positive control culture received a single dose of amphotericin B (55 μM); Panel C, dose-dependent reduction in the viability of C. neoformans after addition of 4-oxatetradecanoic acid (O4) to cultures during log-phase growth at 30° C. in SAB. A single dose of the analog was given at T=0 h in the amount indicated and aliquots of the culture were withdrawn at various times to determine the number of viable cells. All assays were done in triplicate. A representative test is shown.\n(§5) Saccharomyces cerevisiae strain YM2061 (MATa ura3-52 his3Δ200 ade2-101 lys2-801 met LEU2::pRY181 can1; Flick and Johnston, Mol. Cell. Biol. 10, 4757-4769 (1990), Candida albicans strain B311 (obtained from the American Type Tissue Culture, Rockville, Md.), or Cryptococcus neoformans strain L210425 (a clinical isolate that is part of the permanent culture collection of the Mycology Laboratory, Barnes Hospital, St. Louis, Mo.) were grown overnight at 30 C. The S. cerevisiae strain was incubated in YPD medium (1% bacto-yeast extract, Gibco, Long Island, N.Y.), 2% bacto-peptone (Gibco), 2% dextrose). The C. albicans and C. neoformans strains were grown in Sabouraud's media (SAB; 2% (w/v) dextrose, 1% bacto-peptone). The following morning the cultures were diluted into fresh medium to the desired density at 600 nm (early log phase), and subsequently incubated in a rotary shaker at 30° C. until an A600 =0.5 (mid log phase) was achieved. The culture was then divided into 10 ml aliquots. A single 10 μl aliquot of a stock solution of fatty acid analog (prepared in various concentrations using absolute ethanol) was added to the culture so that the final concentration of the compound was 100-500 μM (T=0). Ten microliters of ethanol alone was added to one 10 ml culture which served as the negative control. Amphotericin B (AmB; in the form of Fungizone, Squibb) was added (final concentration=55 μM) to another culture which served as the positive control. At T=0 and 0.5-24 h after addition of fatty acid analog to the subcultures, an aliquot was removed for determining the density of the subculture at 600 nm. Cell viability was determined at each of these time points by (i) serially diluting the aliquot in 0.15M NaCl and counting cell number in a hemocytometer and (ii) plating 2-3 of the dilutions in triplicate onto plates of SAB/agar (C. albicans and C. neoformans) or YPD/agar (S. cerevisiae). These plates were subsequently incubated at 30° C. for 24-48 hr to allow for the growth of colonies. The data were expressed as the ratio of viable cells/ml in the fatty acid analog treated subculture to the number of viable cells/ml in the negative (ethanol) control culture."}, "C. neoformans [2]": {"system": "C. neoformans", "assay": "Growth of C. neoformans cultures (absorbance at 600 nm)", "type": "cell-based, Cryptococcus neoformans", "protocol": "as §4\nas §5, with “Amphotericin B (AmB; in the form of Fungizone, Squibb) was added (final concentration=55 μM) to another culture which served as the positive control. At T=0 and 0.5-24 h after addition of fatty acid analog to the subcultures, an aliquot was removed for determining the density of the subculture at 600 nm.” left out, “These plates were subsequently incubated at 30° C. for 24-48 hr to allow for the growth of colonies.” left out, “culture. […]” for “culture.”"}, "C. albicans": {"system": "C. albicans", "assay": "Viability of C. albicans", "type": "cell-based", "conditions": "Candida albicans", "protocol": "(§6) Oxatetradecanoic acids were added (final concentraton=25-500 μM) as a single dose to log phase cultures of C. alibcans grown in SAB at 30° C. (Panels A and B) and to log phase cultures of S. cerevisiae grown in YPD at 30° C. (Panels C and D). The results were compared to the number of viable organisms present in cultures treated with 0.1% EtOH alone. […] A single does of alphotericin B (final concentration=55 μM) was added to parallel cultures which served as positive controls. Assays were done in duplicate. Representative tests are shown.\nas §5"}, "S. cerevisiae": {"system": "S. cerevisiae", "assay": "Viability of S. cerevisiae", "type": "cell-based", "conditions": "Saccharomyces cerevisiae", "protocol": "as §6, §5"}, "[3]": {"conditions": "Cryptococcus neoformans, 300 μM single dose"}}, "data": [{"smiles": "CCCCCCCCCCCOCC(=O)SCCNC(=O)CCNC(=O)[C@H](O)C(C)(C)COP(=O)(O)OP(=O)(O)OC[C@H]1O[C@@H](n2cnc3c(N)ncnc32)[C@H](O)[C@@H]1OP(=O)(O)O", "note": "[3-oxatetradecanoylCoA]", "values": [{"measurement": "activity of analogCoA relative to myristoylCoA", "setting": "S. cerevisiae NMT", "result": "equivalent to myristate"}, {"measurement": "activity of analogCoA relative to myristoylCoA", "setting": "C. albicans NMT", "result": "equivalent to myristate"}]}, {"smiles": "COCCCCCCCCOCCC(=O)O", "note": "[4,13 dioxatetradecanoic acid, 4,13-Dioxatetradecanoic acid]", "values": [{"measurement": "fungicidal / fungistatic effect on C. neoformans", "setting": "C. neoformans [1]; 300 μM single dose", "result": "did not convert O13 to an active analog"}]}, {"smiles": "CCCCCCCCCCOCCC(=O)SCCNC(=O)CCNC(=O)[C@H](O)C(C)(C)COP(=O)(O)OP(=O)(O)OC[C@H]1O[C@@H](n2cnc3c(N)ncnc32)[C@H](O)[C@@H]1OP(=O)(O)O", "note": "[4-oxatetradecanoylCoA]", "values": [{"measurement": "activity of analogCoA relative to myristoylCoA", "setting": "S. cerevisiae NMT", "result": -3, "unit": "fold"}, {"measurement": "activity of analogCoA relative to myristoylCoA", "setting": "C. albicans NMT", "result": -3, "unit": "fold"}]}, {"smiles": "CCCCCCCCCOCCC(=O)O", "note": "[4-oxatridecanoic acid, 4-Oxatridecanoic acid]", "values": [{"measurement": "time needed to produce the decrease in viable cells", "setting": "C. neoformans [1]; 300 μM single dose", "result": "6 to 7", "unit": "h"}, {"measurement": "log reduction at 300 µM", "setting": "C. neoformans [1]; [3]", "result": 3}, {"measurement": "attenuation of fungicidal activity on shortening by one methylene", "setting": "C. neoformans [1]", "result": 10, "unit": "fold"}]}, {"smiles": "COCCCCCCCOCCCC(=O)O", "note": "[5,13 dioxatetradecanoic acid, 5,13-Dioxatetradecanoic acid]", "values": [{"measurement": "fungicidal / fungistatic effect on C. neoformans", "setting": "C. neoformans [1]; 300 μM single dose", "result": "did not convert O13 to an active analog"}]}, {"smiles": "CCCCCCCCOCCCC(=O)O", "note": "[5-oxatridecanoic acid, 5-Oxatridecanoic acid]", "values": [{"measurement": "fungicidal / fungistatic effect on C. neoformans", "setting": "C. neoformans [1]; 300 μM single dose", "result": "not active"}, {"measurement": "attenuation of fungicidal activity on shortening by one methylene", "setting": "C. neoformans [1]", "result": 10, "unit": "fold"}]}, {"smiles": "C[C@@H]1[C@H](O)[C@@H](C)/C=C/C=C/C=C/C=C/C=C/C=C/C=C/[C@H](O[C@@H]2O[C@H](C)[C@@H](O)[C@H](N)[C@@H]2O)C[C@@H]2O[C@](O)(C[C@@H](O)C[C@@H](O)[C@H](O)CC[C@@H](O)C[C@@H](O)CC(=O)O[C@H]1C)C[C@H](O)[C@H]2C(=O)O", "note": "[Amphotericin B, reference compound]", "values": [{"measurement": "log reduction at 55 µM", "setting": "C. neoformans [1]; Cryptococcus neoformans, read-out: reduction in viable cell number", "result": 6}, {"measurement": "effect on growth of C. neoformans, as determined by optical density", "setting": "C. neoformans [2]; 55 μM, positive control", "result": "growth arrest"}]}, {"smiles": "CCCCCCCCCOCCCC(=O)O", "note": "[O5, 5-oxatetradecanoic acid]", "values": [{"measurement": "fungicidal / fungistatic effect on C. neoformans", "setting": "C. neoformans [1]; 300 μM single dose", "result": "fungicidal"}, {"measurement": "log reduction at 300 µM", "setting": "C. neoformans [1]; [3]", "result": 3}, {"measurement": "log reduction at 300 µM", "setting": "C. albicans; 300 μM, 2 hr after addition, read-out: reductions in the number of viable C. albicans", "result": "< 0.699"}, {"measurement": "log reduction at 500 µM", "setting": "C. albicans; 500 μM, read-out: reduction in the number of viable organisms (C. albicans)", "result": "1 to 2"}, {"measurement": "log reduction at 300 µM", "setting": "S. cerevisiae; 300 μM, 2 hr after addition, read-out: reductions in the number of viable S. cerevisiae", "result": "< 0.699"}, {"measurement": "log reduction at 500 µM", "setting": "S. cerevisiae; 500 μM, read-out: reduction in the number of viable organisms (S. cerevisiae)", "result": "1 to 2"}]}, {"smiles": "CCCCCCCOCCCCCC(=O)O", "note": "[O7]", "values": [{"measurement": "fungicidal / fungistatic effect on C. neoformans", "setting": "C. neoformans [1]; 300 μM single dose", "result": "no measurable effect on the growth"}]}, {"smiles": "CCCCCCOCCCCCCC(=O)O", "note": "[O8]", "values": [{"measurement": "fungicidal / fungistatic effect on C. neoformans", "setting": "C. neoformans [1]; 300 μM single dose", "result": "no measurable effect on the growth"}]}, {"smiles": "CCCCOCCCCCCCCC(=O)O", "note": "[O10]", "values": [{"measurement": "fungicidal / fungistatic effect on C. neoformans", "setting": "C. neoformans [1]; 300 μM single dose", "result": "no measurable effect on the growth"}]}, {"smiles": "CCCOCCCCCCCCCC(=O)O", "note": "[O11, 11-Oxatetradecanoic acid]", "values": [{"measurement": "fungicidal / fungistatic effect on C. neoformans", "setting": "C. neoformans [1]; 300 μM single dose", "result": "no measurable effect on the growth"}, {"measurement": "effect on growth of C. neoformans, as determined by optical density", "setting": "C. neoformans [2]; single 300 μM dose, exponential phase, 30° C., SAB, up to 24 h", "result": "virtually no effect on growth"}]}, {"smiles": "CCOCCCCCCCCCCC(=O)O", "note": "[O12]", "values": [{"measurement": "fungicidal / fungistatic effect on C. neoformans", "setting": "C. neoformans [1]; 300 μM single dose", "result": "no measurable effect on the growth"}]}]}
